From ChEMBL document CHEMBL1671751, “FRET-based sensors for the human M1-, M3-, and M5-acetylcholine receptors” (Bioorg Med Chem, 2011)

What was measured:
[1] = molecular target: Muscarinic acetylcholine receptor M3 (Homo sapiens, UniProt P20309); assay: Activation of M3-ACh receptor-FLASH/CFP expressed in HEK293 cells assessed as FRET signal; type: cell-based
[2] = molecular target: T1, Muscarinic acetylcholine receptor M5 (Homo sapiens, UniProt P08912); assay: Activation of M5-ACh receptor-FLASH/CFP expressed in HEK293 cells assessed as FRET signal; type: cell-based
T1 sequence (P08912 whole entry): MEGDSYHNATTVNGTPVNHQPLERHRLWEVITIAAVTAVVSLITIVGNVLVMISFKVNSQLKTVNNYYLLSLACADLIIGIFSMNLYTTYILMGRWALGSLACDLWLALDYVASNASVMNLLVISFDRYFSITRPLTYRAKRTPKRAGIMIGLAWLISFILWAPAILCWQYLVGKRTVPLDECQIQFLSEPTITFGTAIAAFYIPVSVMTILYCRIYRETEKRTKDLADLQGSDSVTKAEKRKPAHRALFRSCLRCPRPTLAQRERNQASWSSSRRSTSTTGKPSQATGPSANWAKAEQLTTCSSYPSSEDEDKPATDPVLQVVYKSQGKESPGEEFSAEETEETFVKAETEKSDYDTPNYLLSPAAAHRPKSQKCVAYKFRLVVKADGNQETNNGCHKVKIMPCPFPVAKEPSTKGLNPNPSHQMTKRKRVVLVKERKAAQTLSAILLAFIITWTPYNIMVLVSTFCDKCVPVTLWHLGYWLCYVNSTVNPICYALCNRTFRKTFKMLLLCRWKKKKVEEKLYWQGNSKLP

[3] = molecular target: T2, Muscarinic acetylcholine receptor M5 (Homo sapiens) (UniProt P08912); assay: Agonist activity at M5-ACh receptor-FLASH/CFP expressed in HEK293 cells assessed as half-maximal activation time at 100 uM to 1 mM by FRET method; type: functional, cell-based
T2 sequence (whole entry): T1 sequence (P08912 whole entry)

[4] = molecular target: T2, Muscarinic acetylcholine receptor M5 (Homo sapiens); assay: Agonist activity at M5-ACh receptor-FLASH/CFP expressed in HEK293 cells assessed as rate constant at 100 uM to 1 mM by FRET method; type: functional, cell-based
[5] = molecular target: T3, Muscarinic acetylcholine receptor M1 (Homo sapiens, UniProt P11229); assay: Activation of M1-ACh receptor-FLASH/CFP expressed in HEK293 cells assessed as FRET signal; type: cell-based
T3 sequence (P11229 whole entry): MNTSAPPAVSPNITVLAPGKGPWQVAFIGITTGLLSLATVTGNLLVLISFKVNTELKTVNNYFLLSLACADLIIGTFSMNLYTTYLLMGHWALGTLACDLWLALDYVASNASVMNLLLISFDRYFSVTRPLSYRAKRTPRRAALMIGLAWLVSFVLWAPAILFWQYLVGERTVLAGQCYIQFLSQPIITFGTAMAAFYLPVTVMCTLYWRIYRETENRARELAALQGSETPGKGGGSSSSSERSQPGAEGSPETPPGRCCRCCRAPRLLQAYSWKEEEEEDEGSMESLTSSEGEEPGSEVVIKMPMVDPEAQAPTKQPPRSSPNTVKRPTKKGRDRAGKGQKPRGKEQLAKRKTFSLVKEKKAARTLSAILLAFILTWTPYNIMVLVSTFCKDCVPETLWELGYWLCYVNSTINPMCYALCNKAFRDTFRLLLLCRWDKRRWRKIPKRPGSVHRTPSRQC

Chain of Muscarinic acetylcholine receptor M3 (P20309 whole entry): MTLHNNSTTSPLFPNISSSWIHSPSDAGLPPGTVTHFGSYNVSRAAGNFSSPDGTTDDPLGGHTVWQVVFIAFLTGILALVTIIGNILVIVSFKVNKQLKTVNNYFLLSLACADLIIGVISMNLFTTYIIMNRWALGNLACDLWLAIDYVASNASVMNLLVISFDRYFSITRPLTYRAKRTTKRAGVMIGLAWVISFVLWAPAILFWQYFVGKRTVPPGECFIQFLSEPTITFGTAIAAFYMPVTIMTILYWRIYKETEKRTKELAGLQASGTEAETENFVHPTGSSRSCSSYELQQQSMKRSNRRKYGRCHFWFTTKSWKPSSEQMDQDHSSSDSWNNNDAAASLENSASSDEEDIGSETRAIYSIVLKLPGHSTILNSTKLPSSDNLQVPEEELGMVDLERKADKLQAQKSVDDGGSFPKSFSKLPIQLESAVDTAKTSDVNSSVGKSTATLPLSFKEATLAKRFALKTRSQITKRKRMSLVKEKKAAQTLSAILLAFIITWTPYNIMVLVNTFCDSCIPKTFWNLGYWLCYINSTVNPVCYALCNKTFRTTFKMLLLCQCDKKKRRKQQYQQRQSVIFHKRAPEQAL

| Structure (SMILES) | EC50 [1] | EC50 [2] | TIME [3] | Activity [4] | EC50 [5] |
| --- | --- | --- | --- | --- | --- |
| C[C@@H]1O[C@H](C[N+](C)(C)C)C[C@H]1O [MUSCARINE CHLORIDE] | 1000 nM | 1300 nM | 2e-05 h | 13.9 s⁻¹ |  |
| C[N+](C)(C)CC#CCN1CCCC1=O [OXOTREMORINE METHIODIDE] | 1800 nM | 2300 nM | 2.89e-05 h | 9.6 s⁻¹ | 7400 nM |
| C[N+](C)(C)CCOC(N)=O |  |  | 1.89e-05 h | 14.7 s⁻¹ |  |
| CC(=O)OCC[N+](C)(C)C |  |  | 1.81e-05 h | 15.4 s⁻¹ |  |
